Source: patent US20210261512A1, “NOVEL COMPOUNDS” (INFLAZOME LIMITED, priority 2018, published 2021)
Blank lines part the entries; values can stand above or below the molecule they belong to.

Legend:
[1] = target: T1, NLRP3 (Homo sapiens, UniProt Q96P20); assay: THP-1 cells pyroptosis assay; format: cell-based; parameters: Seed THP-1 cells (25,000 cells/well) containing 1.0 μg/ml LPS; host or cells: THP-1; settings: LPS 1.0 μg/ml, nigericin 5 μM, resazurin readout, 10 μM top dose (Example 2: top dose of 30 μM)
Outline: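 Pyroptosis induced by 5 μM nigericin (1 h) in LPS-primed (1 μg/ml) THP-1 cells, 25,000/well in serum-free RPMI, after 3 h compound pre-treatment (8 points, 10 μM top unless stated). Surviving cells measured with 100 μM resazurin, Ex 560/Em 590; IC50 via variable-slope 4-parameter regression.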

[2] = target: T1, NLRP3; assay: Human whole blood IL1β release assay; format: cell-based; settings: LPS 1 μg/ml, nigericin 10 μM, IL-1β AlphaLisa, 10 μM top dose (Example 2: top dose of 30 μM), read-out: HWB IC50
Experimental: For systemic delivery, the ability to inhibit NLRP3 when the compounds are present within the bloodstream is of great importance. For this reason, the NLRP3 inhibitory activity of a number of compounds in human whole blood was investigated in accordance with the following protocol.
Human whole blood in sodium-heparin or lithium-heparin tubes was obtained from healthy donors from a volunteer donor panel. • 1. Plate out 80 μl of whole blood containing 1 μg/ml of LPS in 96-well, clear bottom cell culture plate (Corning #3585) • 2. Add 10 μl compound (8 points half-log dilution with 10 μM top dose, unless stated otherwise) or vehicle (DMSO 0.1% FAC) to the appropriate wells • 3. Incubate for 3 hrs at 37° C., 5% CO2 • 4. Add 10 μl nigericin (Sigma #N7143) (10 μM FAC) to all wells • 5. Incubate for 1 hr at 37° C., 5% CO2 • 6. At the end of the incubation period, spin plates at 300×g for 5 mins to pellet cells and remove 20 μl of supernatant and add to 96-well v-bottom plates for IL-1β analysis (note: these plates containing the supernatants can be stored at −80° C. to be analysed at a later date) • 7. IL-1β was measured according to the manufacturer protocol (Perkin Elmer-AlphaLisa IL-1 Kit AL220F-5000) • 8. IC50 data is fitted to a non-linear regression equation (log inhibitor vs response-variable slope 4-parameters)

T1 sequence (Q96P20 whole entry): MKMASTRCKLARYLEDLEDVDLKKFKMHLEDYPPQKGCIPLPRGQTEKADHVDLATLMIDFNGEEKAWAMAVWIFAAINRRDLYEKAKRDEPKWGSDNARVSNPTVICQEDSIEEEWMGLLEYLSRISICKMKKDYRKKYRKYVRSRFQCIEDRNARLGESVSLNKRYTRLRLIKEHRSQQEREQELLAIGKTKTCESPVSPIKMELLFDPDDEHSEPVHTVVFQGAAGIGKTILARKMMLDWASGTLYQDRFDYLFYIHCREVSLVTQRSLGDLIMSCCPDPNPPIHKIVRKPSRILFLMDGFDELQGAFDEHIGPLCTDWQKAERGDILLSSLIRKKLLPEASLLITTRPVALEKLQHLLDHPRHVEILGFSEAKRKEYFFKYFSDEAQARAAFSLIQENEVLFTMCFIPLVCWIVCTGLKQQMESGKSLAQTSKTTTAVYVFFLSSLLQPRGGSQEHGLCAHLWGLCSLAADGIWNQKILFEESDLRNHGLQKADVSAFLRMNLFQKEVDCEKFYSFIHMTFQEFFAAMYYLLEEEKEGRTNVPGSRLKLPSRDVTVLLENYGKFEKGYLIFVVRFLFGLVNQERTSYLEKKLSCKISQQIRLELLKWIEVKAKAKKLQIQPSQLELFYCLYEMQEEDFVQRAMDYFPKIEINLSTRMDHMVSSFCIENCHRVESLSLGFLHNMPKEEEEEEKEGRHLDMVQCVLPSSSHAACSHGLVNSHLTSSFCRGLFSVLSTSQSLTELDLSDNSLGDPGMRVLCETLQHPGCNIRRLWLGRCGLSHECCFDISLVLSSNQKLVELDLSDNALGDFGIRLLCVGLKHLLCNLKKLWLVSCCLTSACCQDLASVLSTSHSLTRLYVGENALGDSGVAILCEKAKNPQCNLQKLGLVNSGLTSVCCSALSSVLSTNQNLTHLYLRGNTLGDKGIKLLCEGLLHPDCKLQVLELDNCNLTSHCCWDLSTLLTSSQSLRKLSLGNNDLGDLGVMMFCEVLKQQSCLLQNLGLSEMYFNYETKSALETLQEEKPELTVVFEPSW

Compound: O=S(=O)(c1nnc(Nc2c3c(cc4c2CCC4)CCC3)[nH]1)N1CC2(CCOCC2)C1 [Example 145, 5-(7-oxa-2-azaspiro[35]nonan-2-ylsulfonyl)-N-(1,2,3,5,6,7-hexahydro-s-indacen-4-yl)-4H-1,2,4-triazol-3-amine]
IC50 [1]: ≤ 1000 nM | IC50 [2]: ≤ 5000 nM

Compound: CN1CC2CN(S(=O)(=O)c3nnc(Nc4c5c(cc6c4CCC6)CCC5)[nH]3)CC2C1 (stereo not drawn) [Example 138, N-(1,2,3,5,6,7-hexahydro-s-indacen-4-yl)-5-((5-methylhexahydropyrrolo[3,4-c]pyrrol-2 (1H)-yl)sulfonyl)-4H-1,2,4-triazol-3-amine]
IC50 [1]: ≤ 5000 nM | IC50 [2]: ≤ 5000 nM

Compound: CCN(CC)CCN(C)S(=O)(=O)c1nnc(Nc2c3c(cc4c2CCC4)CCC3)[nH]1 [Example 80, N-(2-(diethylamino)ethyl)-3-((1,2,3,5,6,7-hexahydro-s-indacen-4-yl)amino)-N-methyl-1H-1,2,4-triazole-5-sulfonamide]
IC50 [1]: ≤ 1000 nM | IC50 [2]: ≤ 5000 nM

Compound: CC(C)N1CCN(S(=O)(=O)c2nnc(Nc3c4c(cc5c3CCC5)CCC4)[nH]2)CC1 [Example 117, N-(1,2,3,5,6,7-hexahydro-s-indacen-4-yl)-5-((4-isopropylpiperazin-1-yl)sulfonyl)-4H-1,2,4-triazol-3-amine]
IC50 [1]: ≤ 1000 nM | IC50 [2]: ≤ 5000 nM

Compound: CN(C)C1CN(S(=O)(=O)c2nnc(Nc3c4c(cc5c3CCC5)CCC4)[nH]2)C1 [Example 91, 5-((3-(dimethylamino)azetidin-1-yl)sulfonyl)-N-(1,2,3,5,6,7-hexahydro-s-indacen-4-yl)-4H-1,2,4-triazol-3-amine]
IC50 [1]: ≤ 5000 nM | IC50 [2]: ≤ 5000 nM

Compound: CN(C)C(=O)C1CCN(S(=O)(=O)c2nnc(Nc3c4c(cc5c3CCC5)CCC4)[nH]2)C1 (stereo not drawn) [Example 139, 1-((5-((1,2,3,5,6,7-hexahydro-s-indacen-4-yl)amino)-4H-1,2,4-triazol-3-yl)sulfonyl)-N,N-dimethylpyrrolidine-3-carboxamide]
IC50 [1]: ≤ 1000 nM | IC50 [2]: ≤ 10000 nM

Compound: CC(C)(O)C1CCN(S(=O)(=O)c2nnc(Nc3c4c(cc5c3CCC5)CCC4)[nH]2)C1 (stereo not drawn) [Example 289, 2-(1-((5-((1,2,3,5,6,7-hexahydro-s-indacen-4-yl)amino)-4H-1,2,4-triazol-3-yl)sulfonyl)pyrrolidin-3-yl)propan-2-ol]
IC50 [1]: ≤ 1000 nM | IC50 [2]: ≤ 5000 nM

Compound: CN(C)CC1CCN(S(=O)(=O)c2nnc(Oc3c4c(cc5c3CCC5)CCC4)[nH]2)C1 (stereo not drawn) [Example 286, 1-(1-((5-((1,2,3,5,6,7-hexahydro-s-indacen-4-yl)oxy)-4H-1,2,4-triazol-3-yl)sulfonyl)pyrrolidin-3-yl)-N,N-dimethylmethanamine]
IC50 [1]: ≤ 5000 nM | IC50 [2]: ≤ 10000 nM

Compound: CN1CCCNC(=O)C12CCN(S(=O)(=O)c1nnc(Nc3c4c(cc5c3CCC5)CCC4)[nH]1)CC2 [Example 294, 3-((5-((1,2,3,5,6,7-hexahydro-s-indacen-4-yl)amino)-4H-1,2,4-triazol-3-yl)sulfonyl)-7-methyl-3,7,11-triazaspiro[5.6]dodecan-12-one]
IC50 [1]: ≤ 500 nM | IC50 [2]: ≤ 5000 nM

Compound: [2H]C([2H])([2H])Oc1cc(-c2ccc3c(c2Nc2nnc(S(=O)(=O)N4CCC(N(C)C)CC4)[nH]2)CCO3)ccn1 [Example 218, 1-((5-((5-(2-(methoxy-d)pyridin-4-yl)-2,3-dihydrobenzofuran-4-yl)amino)-4H-1,2,4-triazol-3-yl)sulfonyl)-N,N-dimethylpiperidin-4-amine]
IC50 [1]: ≤ 500 nM | IC50 [2]: ≤ 500 nM

Compound: CN(C)C[C@@H]1CCN(S(=O)(=O)c2nnc(Nc3c4c(cc5c3CCC5)CCC4)[nH]2)C1 [Example 147, (S)-5-((3-((dimethylamino)methyl)pyrrolidin-1-yl)sulfonyl)-N-(1,2,3,5,6,7-hexahydro-s-indacen-4-yl)-4H-1,2,4-triazol-3-amine]
IC50 [1]: ≤ 500 nM | IC50 [2]: ≤ 500 nM

Compound: COC(C)(C)[C@H]1CCN(S(=O)(=O)c2nnc(Nc3c4c(cc5c3CCC5)CCC4)[nH]2)C1 [Example 347, (S)-N-(1,2,3,5,6,7-hexahydro-s-indacen-4-yl)-5-((3-(2-methoxypropan-2-yl)pyrrolidin-1-yl)sulfonyl)-4H-1,2,4-triazol-3-amine]
IC50 [1]: ≤ 1000 nM | IC50 [2]: ≤ 10000 nM

Compound: COc1cc(-c2ccc3c(c2Nc2nnc(S(=O)(=O)N4CCC5(CCN5C)CC4)[nH]2)CCC3)ccn1 [Example 204, N-(5-(2-methoxypyridin-4-yl)-2,3-dihydro-1H-inden-4-yl)-5-((1-methyl-1,7-diazaspiro[3.5]nonan-7-yl)sulfonyl)-4H-1,2,4-triazol-3-amine]
IC50 [1]: ≤ 500 nM | IC50 [2]: ≤ 1000 nM

Compound: CN(C)C1CCN(S(=O)(=O)c2nnc(Nc3c4c(cc5c3CCC5)CCC4)[nH]2)C1 (stereo not drawn) [Example 93, 5-((3-(dimethylamino)pyrrolidin-1-yl)sulfonyl)-N-(1,2,3,5,6,7-hexahydro-s-indacen-4-yl)-4H-1,2,4-triazol-3-amine]
IC50 [1]: ≤ 5000 nM | IC50 [2]: ≤ 5000 nM

Results, then the molecule that gave them:

IC50 [1]: ≤ 500 nM | IC50 [2]: ≤ 1000 nM
Compound: COc1cc(-c2cc(F)cc(C(C)C)c2Nc2nnc(S(=O)(=O)N3CC4(CCN(C)C4)C3)[nH]2)ccn1 [Example 248, N-(4-fluoro-2-isopropyl-6-(2-methoxypyridin-4-yl)phenyl)-5-((6-methyl-2,6-diazaspiro[3.4]octan-2-yl)sulfonyl)-4H-1,2,4-triazol-3-amine]

IC50 [1]: ≤ 500 nM | IC50 [2]: ≤ 10000 nM
Compound: CC(c1cc(S(=O)(=O)c2nnc(Nc3c4c(cc5c3CCC5)CCC4)[nH]2)nn1C)N(C)C (stereo not drawn) [Example 5, 5-((5-(1-(dimethylamino)ethyl)-1-methyl-1H-pyrazol-3-yl)sulfonyl)-N-(1,2,3,5,6,7-hexahydro-s-indacen-4-yl)-4H-1,2,4-triazol-3-amine]

IC50 [1]: ≤ 500 nM | IC50 [2]: ≤ 5000 nM
Compound: O=S(=O)(c1nnc(Nc2c3c(cc4c2CCC4)CCC3)[nH]1)N1CC(N2CCCC2)C1 [Example 136, N-(1,2,3,5,6,7-hexahydro-s-indacen-4-yl)-5-((3-(pyrrolidin-1-yl)azetidin-1-yl)sulfonyl)-4H-1,2,4-triazol-3-amine]

IC50 [1]: ≤ 500 nM | IC50 [2]: ≤ 1000 nM
Compound: CN1CCC2(CCN(S(=O)(=O)c3nnc(Nc4c5c(cc6c4CCC6)CCC5)[nH]3)C2)C1 (stereo not drawn) [Example 277, N-(1,2,3,5,6,7-hexahydro-s-indacen-4-yl)-5-((7-methyl-2,7-diazaspiro[4.4]nonan-2-yl)sulfonyl)-4H-1,2,4-triazol-3-amine]

IC50 [1]: ≤ 500 nM | IC50 [2]: ≤ 10000 nM
Compound: COc1cc(-c2c(C)cc3c(c2Nc2nnc(S(=O)(=O)c4ccccc4)[nH]2)CCC3)ccn1 [Example 319, N-(5-(2-methoxypyridin-4-yl)-6-methyl-2,3-dihydro-1H-inden-4-yl)-5-(phenylsulfonyl)-4H-1,2,4-triazol-3-amine]

IC50 [1]: ≤ 500 nM | IC50 [2]: ≤ 5000 nM
Compound: [2H]C([2H])([2H])Oc1cc(-c2ccc3c(c2Nc2nnc(S(=O)(=O)N4CC[C@H](C(C)(C)O)C4)[nH]2)CCC3)ccn1 [Example 344, (S)-2-(1-((5-((5-(2-(methoxy-d3)pyridin-4-yl)-2,3-dihydro-1H-inden-4-yl)amino)-4H-1,2,4-triazol-3-yl)sulfonyl)pyrrolidin-3-yl)propan-2-ol]

IC50 [1]: ≤ 500 nM | IC50 [2]: ≤ 5000 nM
Compound: Cc1cc2c(c(Nc3nnc(S(=O)(=O)c4ccccc4)[nH]3)c1-c1ccnc(OC3CCN(C)CC3)c1)CCC2 [Example 318, N-(6-methyl-5-(2-((1-methylpiperidin-4-yl)oxy)pyridin-4-yl)-2,3-dihydro-1H-inden-4-yl)-5-(phenylsulfonyl)-4H-1,2,4-triazol-3-amine]

IC50 [1]: ≤ 500 nM | IC50 [2]: ≤ 1000 nM
Compound: CN1CCCCC1CCS(=O)(=O)c1nnc(Nc2c3c(cc4c2CCC4)CCC3)[nH]1 (stereo not drawn) [Example 59, N-(1,2,3,5,6,7-Hexahydro-s-indacen-4-yl)-3-((2-(1-methylpiperidin-2-yl)ethyl)sulfonyl)-1H-1,2,4-triazol-5-amine]

IC50 [1]: ≤ 500 nM | IC50 [2]: ≤ 5000 nM
Compound: O=S(=O)(NCCN1CCCC1)c1nnc(Nc2c3c(cc4c2CCC4)CCC3)[nH]1 [Example 108, 5-((1,2,3,5,6,7-hexahydro-s-indacen-4-yl)amino)-N-(2-(pyrrolidin-1-yl)ethyl)-4H-1,2,4-triazole-3-sulfonamide]

IC50 [1]: ≤ 500 nM | IC50 [2]: ≤ 5000 nM
Compound: COc1cc(-c2cc(F)cc(C3CC3)c2Nc2nnc(S(=O)(=O)N3CCC(N(C)C)CC3)[nH]2)ccn1 [Example 301, 1-((5-((2-cyclopropyl-4-fluoro-6-(2-methoxypyridin-4-yl)phenyl)amino)-1H-1,2,4-triazol-3-yl)sulfonyl)-N,N-dimethylpiperidin-4-amine]
